Our source for the k cat values is ChEMBL document CHEMBL1133673, “Crystal structure of FMN-dependent nitroreductase from Escherichia coli B: a prodrug-activating enzyme” (J Med Chem, 2000).

Each structure is given as a SMILES string.

Assay [1] addresses NAD(P)H dehydrogenase [quinone] 1 (Homo sapiens) (UniProt P15559). As to the kind of experiment: Catalytic constant determined to activate by DT diaphorase in human cell lines.
A further assay relates to Escherichia coli B. As to the kind of experiment: Catalytic constant determined to activate by FMN-dependent nitroreductase enzyme from Escherichia coli B (NTR).

NAD(P)H dehydrogenase [quinone] 1 (Homo sapiens), sequence (P15559 whole entry): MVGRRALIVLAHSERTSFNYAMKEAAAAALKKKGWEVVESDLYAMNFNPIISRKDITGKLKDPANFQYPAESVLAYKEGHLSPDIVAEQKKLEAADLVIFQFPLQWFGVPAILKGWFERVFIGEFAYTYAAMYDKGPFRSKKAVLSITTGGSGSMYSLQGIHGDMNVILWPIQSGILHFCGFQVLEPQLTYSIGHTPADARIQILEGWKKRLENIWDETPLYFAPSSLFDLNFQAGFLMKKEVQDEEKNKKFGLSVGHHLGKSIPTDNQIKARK

As for `NC(=O)c1cc(N2CC2)c([N+](=O)[O-])cc1[N+](=O)[O-]`, the k cat was 0.0107 s⁻¹ in assay [1] and 6 s⁻¹ in the assay on Escherichia coli B.

As to `NC(=O)c1cc(N(CCCl)CCCl)c([N+](=O)[O-])cc1[N+](=O)[O-]`, the k cat with Escherichia coli B came out at 26.3 s⁻¹.
